Measurements: patent US9464064B2, “HCV helicase inhibitors and methods of use thereof” (University of Kansas, priority 2011, dated 2016)

Molecular target: T1, HCV NS3 helicase NS3h_1b(con1) (Hepatitis C virus genotype 1b, UniProt Q9WMX2)
T1 construct: truncated C-terminally His-tagged NS3 proteins lacking the N-terminal protease, called NS3h; His-tag (C); made in house
Assay: MBHA screen of NCI mechanistic set library at 20 μM (percent inhibition, compound interference)
Type: biochemical
Conditions: compounds at 20 μM; for Inh. (%) (Inhibition): calculated from Equation 1
Summary of the method: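 Molecular beacon-based DNA unwinding assay; compounds screened at 20 μM in triplicate, with DMSO-only negative and 500 nM dT20 positive controls. Fluorescence (ex 643/em 670 nm) was read before and 30 min after adding ATP to 1 mM. Percent inhibition came from the change relative to DMSO controls; interference from pre-ATP fluorescence versus DMSO controls.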

[1] = MBHA with DNA substrate, assay interference calculated with Equation 2
[2] = assay interference calculated with Equation 2 (fluorescence vs DMSO-only controls before ATP)

T1 sequence (Q9WMX2 1192-1657): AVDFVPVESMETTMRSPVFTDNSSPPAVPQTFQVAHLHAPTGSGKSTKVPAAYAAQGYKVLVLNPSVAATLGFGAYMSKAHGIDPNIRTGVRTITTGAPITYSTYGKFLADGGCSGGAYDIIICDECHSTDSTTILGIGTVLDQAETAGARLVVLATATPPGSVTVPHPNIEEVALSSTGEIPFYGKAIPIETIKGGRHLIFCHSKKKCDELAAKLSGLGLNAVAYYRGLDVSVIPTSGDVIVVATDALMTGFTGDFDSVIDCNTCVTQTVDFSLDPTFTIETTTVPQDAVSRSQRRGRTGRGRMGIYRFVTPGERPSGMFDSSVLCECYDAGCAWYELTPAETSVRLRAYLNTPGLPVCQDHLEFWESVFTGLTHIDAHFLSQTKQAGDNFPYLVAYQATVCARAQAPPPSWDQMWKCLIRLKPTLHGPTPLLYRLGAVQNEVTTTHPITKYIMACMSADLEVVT

Row | SMILES | Int.* (Ratio) (Interference) [1] | Inh. (%) (Inhibition) (MBHA with DNA substrate) | Inh. (%) (Inhibition) (MBHA with a DNA substrate) | Int.* (Ratio) (Interference) [2]
1 | NC1CCCCC1N.[Cl-].[Cl-].[Pt+2] (centres unmarked) [Compound 265459] | 1.00 | −9.8 | – | –
2 | CCCCCCCCCCSCC(CO)NC(=O)/C=C/c1c(C)[nH]c(=O)[nH]c1=O (centres unmarked) [Compound 265473] | – | – | 11.0 | 0.96
3 | O=C1N[C@@H]2C(=C[C@H](O)[C@@H](O)[C@H]2O)c2cc3c(c(O)c21)OCO3 [Compound 266535] | – | – | −5.9 | 0.87
4 | CC(=O)O[C@@H]1C[C@H]2O[C@@H]3C=C(C)CC[C@]3(C)[C@]1(C)[C@]21CO1 [Compound 267033] | 1.04 | 6.7 | – | –
5 | COc1ccc(S(=O)(=O)N/N=C/C(=O)O)cc1 [Compound 267213] | 1.05 | 2.9 | – | –
6 | CC[C@@]1(O)C[C@H](O[C@H]2C[C@H](N(C)C)[C@H](O)[C@H](C)O2)c2c(cc3c(c2O)C(=O)c2c(O)ccc(O)c2C3=O)[C@H]1C(=O)OC [Compound 267229] | 0.49 | 31.5 | – | –
7 | CC1OC(CC(=O)O)CC2=C1C(=O)c1c(O)cccc1C2=O (centres unmarked) [Compound 267461] | 1.01 | −14.4 | – | –
8 | CCNC(=O)OCc1c(COC(=O)NCC)c(-c2ccc(Cl)c(Cl)c2)n2c1CCC2 [Compound 267700] | – | – | −24.0 | 1.04
9 | C=C(C)C(=O)OC1CCC2(C)C(CCC3C2CCC2(C)C(c4ccc(=O)oc4)CC4OC432)C1 (centres unmarked) [Compound 267712] | – | – | −22.8 | 1.09
10 | COc1cccc2c1C(=O)c1c(O)c3c(c(O)c1C2=O)C[C@@](O)(C(C)=O)C[C@@H]3O[C@H]1C[C@H](N(Cc2ccccc2)Cc2ccccc2)[C@H](O)[C@H](C)O1.Cl [Compound 268242] | 0.88 | 30.6 | – | –
11 | CC(C)CCCCCCCCCCCCC(=O)NCC(=O)NC1C(C)OC(Nc2ncnc3nc[nH]c23)C(O)C1O (centres unmarked) [Compound 268251] | 0.96 | 0.2 | – | –
12 | CC[n+]1c(-c2ccccc2)c2cc(N)ccc2c2ccc(N)cc21.[Br-] [Compound 268986] | 0.81 | 36.0 | – | –
13 | CC1=C[C@H]2O[C@@H]3[C@H](O)[C@@H](O)[C@@](C)([C@@]2(CO)CC1)[C@]31CO1 [Compound 269142] | – | – | −19.6 | 1.07
14 | COC(C(=O)C(O)C(C)O)C1Cc2cc3cc(OC4CC(OC5CC(O)C(O)C(C)O5)C(O)C(C)O4)c(C)c(O)c3c(O)c2C(=O)C1OC1CC(OC2CC(OC3CC(O)C(OC)C(C)O3)C(O)C(C)O2)C(O)C(C)O1 (centres unmarked) [Compound 269146] | 0.89 | 15.0 | – | –
15 | CO[C@@H]1C[C@](C)(O)Cc2cc3c(c(O)c21)C(=O)c1c(O)cc2c(c1C3=O)O[C@@H]1O[C@@]2(C)[C@H](O)[C@@H](N(C)C)[C@@H]1O [Compound 269148] | – | – | −4.1 | 0.71
16 | Cc1cc(NCCCCCCCNc2cc(C)nc3cc(N)ccc23)c2ccc(N)cc2n1 [Compound 273829] | 0.26 | 105.0 | – | –
17 | COc1cc2c(cc1Oc1ccc(OC)c3c1CC1c4c(cc(OC)c(OC)c4-3)CCN1C)CC1c3c(cc(OC)c(OC)c3-2)CCN1C (centres unmarked) [Compound 274893] | 0.88 | 16.2 | – | –
18 | C[C@@H](N)C(=O)NC(CO)C(O)C(N)C=O.Cl (some centres unmarked) [Compound 278619] | 1.15 | 1.1 | – | –
19 | CC[C@H](C)C(=O)O[C@H]1CCC=C2C=C[C@H](C)[C@H](CC[C@@H]3C[C@@H](O)CC(=O)O3)[C@H]21 [Compound 281245] | – | – | −3.7 | 1.08
20 | C=C1C(=O)OC2C1CC1OC2C(C)CCC/C(C)=C\CCC1(C)O (centres unmarked) [Compound 282752] | – | – | −5.5 | 1.00
21 | CCCCCCCCCCCCCCCCCCOP(=O)([O-])OCC[N+](C)(C)C [Compound 282880] | 0.85 | 5.8 | – | –
22 | CN(CO)c1nc(N(C)CO)nc(N(C)CO)n1 [Compound 283162] | 1.08 | −12.0 | – | –

Row | SMILES | Int.* (Ratio) (Interference) [1] | Inh. (%) (Inhibition) (MBHA with DNA substrate) | Inh. (%) (Inhibition) (MBHA with a DNA substrate) | Int.* (Ratio) (Interference) [2]
23 | O=C1NC(=O)[C@H]2[C@H]3C=C[C@@H]([C@@H]12)[C@@H]1[C@H]2C(=O)NC(=O)[C@H]2[C@H]31 [Compound 284356] | 1.10 | 0.0 | – | –
24 | Nc1ncnc2c1nc(Cl)n2[C@@H]1O[C@@H]2COP(=O)(O)O[C@H]2[C@H]1O [Compound 284751] | – | – | −4.0 | 1.05
25 | C=C(NC(=O)C(=C)NC(=O)c1csc(C2=N[C@@H]3c4csc(n4)C4NC(=O)c5csc(n5)C([C@](C)(O)[C@@H](C)O)NC(=O)[C@H]5CSC(=N5)/C(=C/C)NC(=O)C(C(C)O)NC(=O)c5csc(n5)C3(CC2)NC(=O)[C@H](C)NC(=O)C(=C)NC(=O)C(=C)NC(=O)C(C(C)C)N[C@@H]2C=Cc3c([C@@H](C)O)cc(nc3[C@H]2O)C(=O)OC4C)n1)C(N)=O (some centres unmarked) [Compound 285116] | 0.90 | −0.3 | – | –
26 | Oc1cccc2cccnc12 [Compound 285166] | 0.95 | −2.2 | – | –
27 | COc1cc2c(cc1O)N=CC1CCC(O)N1C2=O (centres unmarked) [Compound 285223] | – | – | −26.2 | 1.01
28 | NC(=O)c1csc(C2OC(CO)C(O)C2O)n1 (centres unmarked) [Compound 286193] | 1.13 | 1.1 | – | –
29 | CCN(CC)CCNC(=O)c1nn(-c2ccc(Cl)cc2)c2c1CCc1cc(OC)ccc1-2 [Compound 288010] | 1.01 | 28.3 | – | –
30 | CC12CCC3C(CCC4CC(OC(=O)Cc5ccc(N(CCCl)CCCl)cc5)CCC43C)C1CCC(=O)N2 (centres unmarked) [Compound 290205] | 1.03 | 34.9 | – | –
31 | O=C1C2=Nc3ccccc3C(O)N2c2ccccc21 (centres unmarked) [Compound 292147] | 1.07 | −2.1 | – | –
32 | COC1CC(CC2CCC(C)C(C(C)C(=O)O)O2)OC2(OC(C)(C3CCC(C)(C4OC(C5OC(O)(CO)C(C)CC5C)CC4C)O3)CC2C)C1C (centres unmarked) [Compound 292567] | 0.85 | −11.3 | – | –
33 | C=C1C(=O)OC2/C=C(/CO)[C@@H](OC(C)=O)C[C@H](O)/C(C)=C\[C@@H](OC(=O)[C@@H](C)CC)[C@@H]12 (some centres unmarked) [Compound 292663] | 0.95 | 5.1 | – | –
34 | CCN(CC)CCOC(=O)Cc1cccc2c(=O)cc(-c3ccccc3)oc12 [Compound 293015] | 0.96 | 6.7 | – | –
35 | O=C1Oc2ccccc2C(=O)/C1=C1\C=C(c2ccccc2)SS1 [Compound 293927] | 1.00 | −14.7 | – | –
36 | CC(C)C1=C(O)C2=C(C(=O)C1=O)C1(C)CCCC(C)(C)C1CC2O (centres unmarked) [Compound 294577] | 0.95 | −15.9 | – | –
37 | O=C1Nc2ccc(Br)cc2/C1=C\C(=O)c1ccccc1 [Compound 294961] | – | – | −28.1 | 1.06
38 | CC1(O)C=CC(=O)C=C1 [Compound 295156] | – | – | 9.0 | 0.99
39 | NCCCNCCSP(=O)(O)O [Compound 296961] | 0.92 | 17.5 | – | –
40 | COc1cc2oc(=O)cc(C)c2cc1[N+](=O)[O-] [Compound 299879] | 0.94 | 20.5 | – | –
41 | COc1ccc(-c2csc(=[N+]3CCCCC3)s2)cc1.O=S(=O)(O)O [Compound 302358] | 1.05 | 1.1 | – | –
42 | C=C1C(=O)C2=CC1CCC(=O)C1(C)CCC(OC(C)=O)C(C)(C)C1CC2O (centres unmarked) [Compound 302979] | 0.89 | −8.3 | – | –
43 | CCC12C[N+]3([O-])CCc4c([nH]c5ccccc45)C(C(=O)OC)(c4cc5c(cc4OC)N(C)C4C(O)(C(=O)OC)C(OC(C)=O)C6(CC)C=CCN7CCC54C76)CC(C3)C1O2 (centres unmarked) [Compound 304421] | 0.97 | 25.6 | – | –
